Several values for one entry are separate records, joined by “and”; a condition that tells them apart may be missing. Identical values can stand only once. Peptide text beside a SMILES is read from it.
T1: sarbecovirus spike hepta-peptide, wild type (1267Gly-Val-Lys-Leu-His-Tyr-Thr1273) (SARS-CoV-2)
T1 peptide: GVKLHYT

B1: αCOPI-WD40 domain (residues 1-327) from Schizosaccharomyces pombe (domain or fragment)
chain: MEMLTKFESRSSRAKGVAFHPTQPWILTSLHNGRIQLWDYRMGTLLDRFDGHDGPVRGIAFHPTQPLFVSGGDDYKVNVWNYKSRKLLFSLCGHMDYVRVCTFHHEYPWILSCSDDQTIRIWNWQSRNCIAILTGHSHYVMCAAFHPSEDLIVSASLDQTVRVWDISGLRMKNAAPVSMSKEDQKAQAHNSKSNDKKGSTDAIVKFVLEGHDRGVNWCAFHPTLPLILSAGDDRLVKLWRMTASKAWEVDTCRGHFNNVSCCLFHPHQELILSASEDKTIRVWDLNRRTAVQTFRRDNDRFWFITVHPKLNLFAAAHDSGVMVFKLE

How the values were obtained:
[1] = target: αCOPI-WD40 domain (residues 1-327) (Schizosaccharomyces pombe, UniProt Q96WV5, F197K/I192K/L181K/L185K/L196K); test: biochemical; assay type: binding
[2] = target: T1, sarbecovirus spike hepta-peptide, wild …; test: BLI; conditions: both partners purified

Row | Molecule | Kd ([1]; Equilibrium KD) | Kd ([1]; Kinetic KD) | koff ([1]; pH 6.5) | kon ([1]; pH 6.5) | also measured
1 | CC(C)C[C@H](NC(=O)[C@H](CCCCN)NC(=O)[C@@H](NC(=O)CN)C(C)C)C(=O)N[C@@H](Cc1c[nH]cn1)C(=O)N[C@@H](Cc1ccc(O)cc1)C(=O)N[C@@H](CCC(=O)O)C(=O)O [GVKLHYE] (H-GVKLHYE-OH) | 310 ± 10 nM | 380 ± 10 nM | 0.024 ± 0.0003 s⁻¹ | 58.96 ± 0.54 10^3/Ms | –
2 | CC(C)C[C@H](NC(=O)[C@H](CCCCN)NC(=O)[C@@H](NC(=O)CN)C(C)C)C(=O)N[C@@H](Cc1c[nH]cn1)C(=O)N[C@@H](Cc1ccc(O)cc1)C(=O)N[C@H](C(=O)O)C(C)C [GVKLHYV] (H-GVKLHYV-OH) | 3200 ± 40 nM | 2060 ± 50 nM | 0.212 ± 0.002 s⁻¹ | 102.67 ± 2.61 10^3/Ms | –
3 | CC(C)C[C@H](NC(=O)[C@H](CCCCN)NC(=O)[C@@H](NC(=O)CN)C(C)C)C(=O)N[C@@H](Cc1c[nH]cn1)C(=O)N[C@@H](C)C(=O)N[C@H](C(=O)O)[C@@H](C)O [GVKLHAT] (H-GVKLHAT-OH) | 3770 ± 340 nM | 2320 ± 70 nM | 0.28 ± 0.003 s⁻¹ | 120.87 ± 3.39 10^3/Ms | –
4 | CC(C)C[C@H](NC(=O)[C@H](CCCCN)NC(=O)[C@@H](NC(=O)CN)C(C)C)C(=O)N[C@@H](Cc1c[nH]cn1)C(=O)N[C@@H](Cc1ccc(O)cc1)C(=O)N[C@@H](C)C(=O)O [GVKLHYA] (H-GVKLHYA-OH) | 1130 ± 50 nM | 1140 ± 20 nM | 0.076 ± 0.001 s⁻¹ | 66.67 ± 0.80 10^3/Ms | –
5 | VLKTYHG | – | – | – | – | Binding to αCOPI-WD40 (in words) ([1]; pH 7.5): no detectable interaction
6 | KEVYLHG | – | – | – | – | Binding to αCOPI-WD40 (in words) ([1]; pH 6.5): weak binding
7 | CC(C)C[C@H](NC(=O)[C@H](CCCCN)NC(=O)[C@@H](NC(=O)CN)C(C)C)C(=O)N[C@@H](CCCCN)C(=O)N[C@@H](Cc1ccc(O)cc1)C(=O)N[C@H](C(=O)O)[C@@H](C)O [GVKLKYT] (H-GVKLKYT-OH) | – | 2710 nM | – | – | koff ([1]; pH 7.5): 0.184 s⁻¹; kon ([1]; pH 7.5): 67.3 ± 1.45 10^3/Ms
8 | CC(C)C[C@H](NC(=O)[C@H](CCCCN)NC(=O)[C@@H](NC(=O)CN)C(C)C)C(=O)N[C@@H](Cc1c[nH]cn1)C(=O)N[C@@H](Cc1ccc(O)cc1)C(=O)N[C@@H](CCC(N)=O)C(=O)O [GVKLHYQ] (H-GVKLHYQ-OH) | 780 ± 40 nM | 1150 ± 10 nM | 0.066 ± 0.001 s⁻¹ | 60.05 ± 0.75 10^3/Ms | –
9 | GVALAYT | – | – | – | – | Binding to αCOPI-WD40 (in words) ([1]; pH 6.5): does not demonstrate any substantial binding
10 | GVKLAYT | – | – | – | – | Binding to αCOPI-WD40 (in words) ([1]; pH 6.5): abolished binding
11 | GVALHYT | – | – | – | – | Binding to αCOPI-WD40 (in words) ([1]; pH 6.5): abolished binding
12 | CC(C)C[C@H](NC(=O)[C@H](CCCCN)NC(=O)[C@@H](NC(=O)CN)C(C)C)C(=O)N[C@@H](Cc1c[nH]cn1)C(=O)N[C@@H](Cc1ccc(O)cc1)C(=O)N[C@@H](CCCNC(=N)N)C(=O)O [GVKLHYR] (H-GVKLHYR-OH) | 1730 ± 240 nM | 1290 ± 40 nM | 0.177 ± 0.001 s⁻¹ | – | –
13 | CC(C)C[C@H](NC(=O)[C@H](CCCCN)NC(=O)[C@@H](NC(=O)CN)C(C)C)C(=O)N[C@@H](Cc1c[nH]cn1)C(=O)N[C@@H](Cc1ccc(O)cc1)C(=O)N[C@H](C(=O)O)[C@@H](C)O [GVKLHYT] (H-GVKLHYT-OH) | 4170 nM and 1400 nM | 2750 nM and 950 nM | 0.145 ± 0.001 s⁻¹ | 152.13 ± 3.45 10^3/Ms | koff ([1]; pH 7.5): 0.25 ± 0.003 s⁻¹; kon ([1]; pH 7.5): 89.96 ± 2.72 10^3/Ms
14 | B1 | – | – | – | – | koff [2]: 0.145 s⁻¹ and 0.25 s⁻¹; kon [2]: 152000 M⁻¹ s⁻¹ and 90000 M⁻¹ s⁻¹

Source: article PMC8825798 (Communications Biology, 2022)
